# Measured values taken from patent US20250340563A1, “FUSED PYRIDAZINE DERIVATIVES AS NLRP3 INHIBITORS” (Takeda Pharmaceutical Company Limited, priority 2022, published 2025).
# Legend:
# NF-κB pathway = test: TNF-α assay in IFN-γ-differentiated, LPS-stimulated THP-1 cells (ELISA); type: cell-based; settings: Homo sapiens, 50 ng/mL LPS, 3 hours
# Method: Monocytic THP-1 cells (ATCC: TIB-202) are maintained in accordance with the provider's instructions in RPMI media (Life Technologies, Cat #A10491-01); RPMI is supplemented with 10% heat inactivated fetal bovine serum (Hyclone Cat #SH30396.03). The cells are differentiated into macrophages by the addition of 25 ng/mL IFN-γ for 24 hours at 37° C./5% CO2. Media is exchanged with fresh media with no FBS. The cells are plated at 40,000 cells per well in 384-well flat-bottom cell culture plates (Costar 3764) containing compounds (added in 1:1000) in a 1:3.16 serial dilution series in DMSO and are incubated for 30 minutes at 37° C./5% CO2. The NF-κB pathway is activated with the addition of 50 ng/mL LPS and the cells are incubated for 3 hours at 37° C./5% CO2. At the end of the incubation period, supernatant (40 μL) is removed, and […] are monitored using an ELISA (Human TNF-α ELISA, R&D systems, Cat #DY210) according to the manufacturer's instructions.
# The IC50 values are calculated from a plot of percentage of inhibition versus the inhibitor concentration by a logistics curve fit according to: Y=[Bottom+(Top−Bottom)]/(1+10^[(Log IC50−X)·Hill Slope], where Y is the % inhibition at the inhibitor concentration, X, “Bottom” is the lowest inhibition value, i.e. 0%, “Top” is the maximum inhibition value, i.e. 100%, and the “Hill Slope” describes the slope of the sigmoidal curve between the “Bottom” and “Top” values. The curve fitting was conducted with internally developed software.
# NLRP3 inflammasome = NLRP3 inflammasome (Homo sapiens, UniProt Q96P20); test: IL-1β assay in IFN-γ-differentiated, LPS-primed, ATP-activated THP-1 cells (ELISA); type: cell-based; settings: 50 ng/mL LPS priming, 2.5 mM ATP activation, 2 hours
# Method in brief: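 THP-1 cells differentiated with 25 ng/mL IFN-γ for 24 h, then primed with 50 ng/mL LPS for 24 h in serum-free medium. After 30 min compound preincubation (1:3.16 dilution series), inflammasome activated with 2.5 mM ATP for 2 h at 37 °C. Supernatant IL-1β measured by ELISA; IC50 from logistic fit of % inhibition.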
# Sequence of NLRP3 inflammasome (Q96P20 whole entry): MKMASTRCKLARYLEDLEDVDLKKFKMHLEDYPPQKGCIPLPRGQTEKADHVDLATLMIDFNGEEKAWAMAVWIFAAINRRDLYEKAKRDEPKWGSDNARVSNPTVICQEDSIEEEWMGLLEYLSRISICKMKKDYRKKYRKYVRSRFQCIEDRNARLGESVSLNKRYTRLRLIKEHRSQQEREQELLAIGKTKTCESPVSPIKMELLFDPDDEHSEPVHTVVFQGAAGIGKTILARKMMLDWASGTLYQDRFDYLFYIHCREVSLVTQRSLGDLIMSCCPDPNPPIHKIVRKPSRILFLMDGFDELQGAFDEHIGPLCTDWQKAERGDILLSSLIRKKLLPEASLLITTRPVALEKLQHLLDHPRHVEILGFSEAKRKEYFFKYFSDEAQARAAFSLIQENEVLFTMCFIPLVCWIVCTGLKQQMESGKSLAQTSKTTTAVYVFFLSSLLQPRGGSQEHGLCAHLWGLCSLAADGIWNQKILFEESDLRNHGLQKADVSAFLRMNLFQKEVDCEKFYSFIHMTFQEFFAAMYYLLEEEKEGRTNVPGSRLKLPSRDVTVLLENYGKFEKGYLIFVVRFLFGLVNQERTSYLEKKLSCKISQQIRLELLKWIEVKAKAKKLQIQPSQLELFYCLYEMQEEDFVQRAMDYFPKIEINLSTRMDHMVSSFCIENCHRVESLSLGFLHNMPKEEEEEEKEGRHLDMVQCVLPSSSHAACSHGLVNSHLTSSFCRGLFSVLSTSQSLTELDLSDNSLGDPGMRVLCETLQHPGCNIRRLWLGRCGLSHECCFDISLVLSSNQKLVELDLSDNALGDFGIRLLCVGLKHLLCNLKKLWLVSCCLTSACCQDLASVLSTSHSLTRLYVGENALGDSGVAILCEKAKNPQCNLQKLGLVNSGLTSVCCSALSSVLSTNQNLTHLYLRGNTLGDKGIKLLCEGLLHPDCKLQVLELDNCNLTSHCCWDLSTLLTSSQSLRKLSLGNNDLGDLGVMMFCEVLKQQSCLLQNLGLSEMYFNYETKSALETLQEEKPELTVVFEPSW
SMILES,IC50 (NF-κB pathway) [µM],IC50 (NLRP3 inflammasome) [µM]
"CN1CCCC(Nc2nnc(-c3ccc(Cl)c(F)c3)c3ccccc23)C1 (stereo not drawn) [Example 44, 4-(4-chloro-3-fluorophenyl)-N-(1-methylpiperidin-3-yl)phthalazin-1-amine]",> 30,0.097
"Cc1cc(Cl)ccc1-c1nnc(NC2CCCN(C)C2)c2ccccc12 (stereo not drawn) [Example 46, 4-(4-chloro-2-methylphenyl)-N-(1-methylpiperidin-3-yl)phthalazin-1-amine]",> 30,0.113
"COc1ccc(-c2nnc(N[C@@H]3CCCN(C)C3)c3c(C)cccc23)cc1 [Example 56, (R)-4-(4-methoxyphenyl)-8-methyl-N-(1-methylpiperidin-3-yl)phthalazin-1-amine]",> 30,0.072
"Oc1cc(Cl)ccc1-c1nnc(N[C@@H]2CCCN(CCF)C2)c2ccccc12 [Example 59, (R)-5-chloro-2-(4-((1-(2-fluoroethyl)piperidin-3-yl)amino)phthalazin-1-yl)phenol]",> 30,0.002
"Oc1ccccc1-c1nnc(N[C@@H]2CCCN(CCF)C2)c2ccccc12 [Example 60, (R)-2-(4-((1-(2-fluoroethyl)piperidin-3-yl)amino)phthalazin-1-yl)phenol]",21.4,0.027
"CN1CCC[C@@H](Nc2nnc(-c3ccc(Cl)cc3)c3cnccc23)C1 [Example 67, (R)-4-(4-chlorophenyl)-N-(1-methylpiperidin-3-yl)pyrido[3,4-d]pyridazin-1-amine]",> 30,0.552
"CN1CCCC(Nc2nnc(-c3ccc(Cl)cc3F)c3ccncc23)C1 (stereo not drawn) [Example 68, 1-(4-chloro-2-fluorophenyl)-N-(1-methylpiperidin-3-yl)pyrido[3,4-d]pyridazin-4-amine]",> 30,0.046
"CN1CCC[C@@H](Nc2nnc(-c3ccc(Cl)cc3F)c3ccncc23)C1 [Example 71, (R)-1-(4-chloro-2-fluorophenyl)-N-(1-methylpiperidin-3-yl)pyrido[3,4-d]pyridazin-4-amine]",9.55,0.046
"CN1CCC[C@@H](Nc2nnc(-c3ccc(Cl)cc3O)c3ccncc23)C1 [Example 74, (R)-5-chloro-2-(4-((1-methylpiperidin-3-yl)amino)pyrido[3,4-d]pyridazin-1-yl)phenol]",> 30,0.004
"CN1CCC[C@@H](Nc2nnc(-c3ccc(Cl)cc3O)c3cnccc23)C1 [Example 75, (R)-5-chloro-2-(1-((1-methylpiperidin-3-yl)amino)pyrido[3,4-d]pyridazin-4-yl)phenol]",> 30,0.003
"Cc1nccc2c(-c3ccc(Cl)cc3)nnc(NC3CCCN(C)C3)c12 (stereo not drawn) [Example 76, 1-(4-chlorophenyl)-5-methyl-N-(1-methylpiperidin-3-yl)pyrido[3,4-d]pyridazin-4-amine]",> 30,0.178
"Cc1cc2c(-c3ccc(Cl)cc3)nnc(NC3CCCN(C)C3)c2cn1 (stereo not drawn) [Example 80, 1-(4-chlorophenyl)-7-methyl-N-(1-methylpiperidin-3-yl)pyrido[3,4-d]pyridazin-4-amine]",> 30,0.036
"COc1ccc(-c2nnc(N[C@@H]3CCCN(CCF)C3)c3cnccc23)cc1 [Example 84, (R)—N-(1-(2-fluoroethyl)piperidin-3-yl)-1-(4-methoxyphenyl)pyrido[3,4-d]pyridazin-4-amine]",> 30,0.079
"COc1ccc(-c2nnc(N[C@@H]3CCCN(CCF)C3)c3cnccc23)c(F)c1 [Example 87, (R)-1-(2-fluoro-4-methoxyphenyl)-N-(1-(2-fluoroethyl)piperidin-3-yl)pyrido[3,4-d]pyridazin-4-amine]",> 30,0.033
"Clc1ccc(-c2nnc(NC3CCCN(C4CC4)C3)c3ccncc23)cc1 (stereo not drawn) [Example 89, 4-(4-chlorophenyl)-N-(1-cyclopropylpiperidin-3-yl)pyrido[3,4-d]pyridazin-1-amine]",> 30,0.091
"CN1CCCC(Nc2nnc(-c3ccc(Cl)cc3)c3ccccc23)C1 (stereo not drawn) [Example 113, 4-(4-chlorophenyl)-N-(1-methylpiperidin-3-yl)phthalazin-1-amine]",> 30,0.047
"C[C@]1(O)C[C@@H](Nc2nnc(-c3ccc(Cl)cc3)c3ccccc23)C1 [Example 118, cis-3-((4-(4-chlorophenyl)phthalazin-1-yl)amino)-1-methylcyclobutan-1-ol]",> 30,0.334

# More lines, now with the values ahead:
IC50 (NF-κB pathway) [µM],IC50 (NLRP3 inflammasome) [µM],SMILES
> 30,0.041,"CN1CCCC(Nc2nnc(-c3ccc(Cl)cc3F)c3ccccc23)C1 (stereo not drawn) [Example 43, 4-(4-chloro-2-fluorophenyl)-N-(1-methylpiperidin-3-yl)phthalazin-1-amine]"
> 30,0.066,"COc1ccc(-c2nnc(N[C@@H]3CCCN(CCF)C3)c3ccccc23)cc1 [Example 58, (R)—N-(1-(2-fluoroethyl)piperidin-3-yl)-4-(4-methoxyphenyl)phthalazin-1-amine]"
> 30,0.058,"CN1CCC[C@@H](Nc2nnc(-c3ccc(Cl)cc3)c3ccncc23)C1 [Example 64, (R)-1-(4-chlorophenyl)-N-(1-methylpiperidin-3-yl)pyrido[3,4-d]pyridazin-4-amine]"
> 30,0.052,"COc1ccc(-c2nnc(NC3CCCN(C)C3)c3cnccc23)cc1 (stereo not drawn) [Example 72, 1-(4-methoxyphenyl)-N-(1-methylpiperidin-3-yl)pyrido[3,4-d]pyridazin-4-amine]"
> 30,0.27,"COc1ccc(-c2nnc(NC3CCCN(C)C3)c3ccncc23)cc1 (stereo not drawn) [Example 73, 4-(4-methoxyphenyl)-N-(1-methylpiperidin-3-yl)pyrido[3,4-d]pyridazin-1-amine]"
24.3,0.005,"COc1ccc(-c2nnc(N[C@@H]3CCCN(C)C3)c3ccnc(C)c23)c(O)c1 [Example 79, (R)-5-methoxy-2-(5-methyl-1-((1-methylpiperidin-3-yl)amino)pyrido[3,4-d]pyridazin-4-yl)phenol]"
> 30,0.067,"Cc1cc2c(NC3CCCN(C)C3)nnc(-c3ccc(Cl)cc3)c2cn1 (stereo not drawn) [Example 81, 4-(4-chlorophenyl)-7-methyl-N-(1-methylpiperidin-3-yl)pyrido[3,4-d]pyridazin-1-amine]"
> 10,0.095,"COc1cc2c(NC3CCCN(C)C3)nnc(-c3ccc(Cl)cc3)c2cn1 (stereo not drawn) [Example 82, 4-(4-chlorophenyl)-7-methoxy-N-(1-methylpiperidin-3-yl)pyrido[3,4-d]pyridazin-1-amine]"
> 30,0.082,"COc1cc2c(-c3ccc(Cl)cc3)nnc(NC3CCCN(C)C3)c2cn1 (stereo not drawn) [Example 83, 1-(4-chlorophenyl)-7-methoxy-N-(1-methylpiperidin-3-yl)pyrido[3,4-d]pyridazin-4-amine]"
> 30,0.002,"Oc1cc(Cl)ccc1-c1nnc(N[C@@H]2CCCN(CCF)C2)c2cnccc12 [Example 85, (R)-5-chloro-2-(4-((1-(2-fluoroethyl)piperidin-3-yl)amino)pyrido[3,4-d]pyridazin-1-yl)phenol]"
> 30,0.021,"Oc1ccccc1-c1nnc(N[C@@H]2CCCN(CCF)C2)c2cnccc12 [Example 86, (R)-2-(4-((1-(2-fluoroethyl)piperidin-3-yl)amino)pyrido[3,4-d]pyridazin-1-yl)phenol]"
> 30,0.008,"Clc1ccc(-c2nnc(NC3CCCN(C4CC4)C3)c3cnccc23)cc1 (stereo not drawn) [Example 88, 1-(4-chlorophenyl)-N-(1-cyclopropylpiperidin-3-yl)pyrido[3,4-d]pyridazin-4-amine]"
> 30,0.03,"CN1CCC[C@@H](Nc2nnc(-c3ccc(F)cc3O)c3ccncc23)C1 [Example 93, (R)-5-fluoro-2-(4-((1-methylpiperidin-3-yl)amino)pyrido[3,4-d]pyridazin-1-yl)phenol]"
> 30,0.01,"C[C@]1(O)C[C@@H](Nc2nnc(-c3ccc(Cl)cc3O)c3ccncc23)C1 [Example 95, cis-5-chloro-2-(4-((-3-hydroxy-3-methylcyclobutyl)amino)pyrido[3,4-d]pyridazin-1-yl)phenol]"
26,0.005,"Oc1cc(Cl)ccc1-c1nnc(NC23CCC(O)(CC2)C3)c2cnccc12 [Example 96, 4-((1-(4-chloro-2-hydroxyphenyl)pyrido[3,4-d]pyridazin-4-yl)amino)bicyclo[2.2.1]heptan-1-ol]"
> 30,3.78,"CN1CCCC(Nc2nnc(-c3ccc(Cl)cc3)c3ccccc23)C1=O (stereo not drawn) [Example 111, 3-((4-(4-chlorophenyl)phthalazin-1-yl)amino)-1-methylpiperidin-2-one]"
